Experiments:
Assay in all cases: KINOMEscan competition binding
Settings in all cases: compound 10.0 µM
CDC42BPB (human) = CDC42BPB (human) (UniProt Q9Y5S2)
CDK11B (human) = CDK11B (human) (UniProt P21127)
CDK14 (human) = CDK14 (human) (UniProt O94921)
CDK16 (human) = CDK16 (human) (UniProt Q00536)
CDK18 (human) = CDK18 (human) (UniProt Q07002)
CDK8 (human) = CDK8 (human) (UniProt P49336)
CDKL2 (human) = CDKL2 (human) (UniProt Q92772)
CDKL3 (human) = CDKL3 (human) (UniProt Q8IVW4)
CIT (human) = CIT (human) (UniProt O14578)
CSNK1A1 (human) = CSNK1A1 (human) (UniProt P48729)
CSNK1D (human) = CSNK1D (human) (UniProt P48730)
CSNK1G1 (human) = CSNK1G1 (human) (UniProt Q9HCP0)
Sequence of CSNK1G1 (human) (Q9HCP0 whole entry, looked up): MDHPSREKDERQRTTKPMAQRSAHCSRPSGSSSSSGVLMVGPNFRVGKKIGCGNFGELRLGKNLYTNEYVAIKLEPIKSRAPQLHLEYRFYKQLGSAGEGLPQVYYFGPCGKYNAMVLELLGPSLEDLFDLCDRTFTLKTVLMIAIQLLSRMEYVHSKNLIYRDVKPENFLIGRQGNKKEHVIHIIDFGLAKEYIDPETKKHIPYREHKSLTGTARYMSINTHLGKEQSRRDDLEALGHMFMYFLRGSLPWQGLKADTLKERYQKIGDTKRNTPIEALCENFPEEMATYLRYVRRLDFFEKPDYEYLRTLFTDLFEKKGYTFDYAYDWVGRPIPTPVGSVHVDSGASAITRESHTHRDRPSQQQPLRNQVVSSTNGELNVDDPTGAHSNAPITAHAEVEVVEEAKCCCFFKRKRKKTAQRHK

DCLK2 (human) = DCLK2 (human) (UniProt Q8N568)
EGFR (human) = EGFR (human) (UniProt P00533)
EIF2AK1 (human) = EIF2AK1 (human) (UniProt Q9BQI3)
GSK3A (human) = GSK3A (human) (UniProt P49840)
Sequence of GSK3A (human) (P49840 whole entry, looked up): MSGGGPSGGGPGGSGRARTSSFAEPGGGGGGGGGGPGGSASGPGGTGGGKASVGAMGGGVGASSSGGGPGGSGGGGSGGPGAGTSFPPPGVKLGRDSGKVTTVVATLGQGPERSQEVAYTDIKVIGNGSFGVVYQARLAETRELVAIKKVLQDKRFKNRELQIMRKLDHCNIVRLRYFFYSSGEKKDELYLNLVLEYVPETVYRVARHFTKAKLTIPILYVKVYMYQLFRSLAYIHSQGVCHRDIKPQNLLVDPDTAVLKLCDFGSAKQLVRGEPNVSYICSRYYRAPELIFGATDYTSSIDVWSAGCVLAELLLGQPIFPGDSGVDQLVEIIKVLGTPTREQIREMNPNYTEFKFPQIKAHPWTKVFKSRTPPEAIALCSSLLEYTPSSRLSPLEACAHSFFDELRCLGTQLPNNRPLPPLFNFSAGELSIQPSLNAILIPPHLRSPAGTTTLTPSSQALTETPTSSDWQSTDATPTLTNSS

IKBKB (human) = IKBKB (human) (UniProt O14920)
KDR (human) = KDR (human) (UniProt P35968)
LATS2 (human) = LATS2 (human) (UniProt Q9NRM7)
LYN (human) = LYN (human) (UniProt P07948)
MAPK13 (human) = MAPK13 (human) (UniProt O15264)
Sequence of MAPK13 (human) (O15264 whole entry, looked up): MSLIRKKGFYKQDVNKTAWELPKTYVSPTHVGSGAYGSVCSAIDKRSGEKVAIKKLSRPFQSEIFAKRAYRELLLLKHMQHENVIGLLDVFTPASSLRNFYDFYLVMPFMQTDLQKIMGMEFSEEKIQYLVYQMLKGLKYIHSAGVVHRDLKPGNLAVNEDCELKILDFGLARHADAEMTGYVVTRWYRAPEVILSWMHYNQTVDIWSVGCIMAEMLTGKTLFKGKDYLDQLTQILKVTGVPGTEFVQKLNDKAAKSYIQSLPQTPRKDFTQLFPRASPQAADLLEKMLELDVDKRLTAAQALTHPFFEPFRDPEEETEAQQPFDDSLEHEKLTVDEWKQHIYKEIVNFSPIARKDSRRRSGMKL

MINK1 (human) = MINK1 (human) (UniProt Q8N4C8)
MKNK1 (human) = MKNK1 (human) (UniProt Q9BUB5)
Sequence of MKNK1 (human) (Q9BUB5 whole entry, looked up): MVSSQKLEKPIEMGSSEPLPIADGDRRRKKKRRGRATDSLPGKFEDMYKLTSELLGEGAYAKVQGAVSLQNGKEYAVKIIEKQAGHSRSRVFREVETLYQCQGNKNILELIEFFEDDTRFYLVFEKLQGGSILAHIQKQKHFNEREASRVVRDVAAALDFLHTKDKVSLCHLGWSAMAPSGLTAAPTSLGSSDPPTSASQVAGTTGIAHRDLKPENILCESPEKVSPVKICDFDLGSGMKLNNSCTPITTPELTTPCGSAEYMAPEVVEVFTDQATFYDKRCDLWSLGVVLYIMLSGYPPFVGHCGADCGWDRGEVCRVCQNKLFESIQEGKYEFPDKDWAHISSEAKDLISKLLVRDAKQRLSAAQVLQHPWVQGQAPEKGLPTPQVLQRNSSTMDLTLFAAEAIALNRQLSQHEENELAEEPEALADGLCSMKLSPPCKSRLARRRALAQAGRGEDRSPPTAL

MST1R (human) = MST1R (human) (UniProt Q04912)
PAK2 (human) = PAK2 (human) (UniProt Q13177)
PAK3 (human) = PAK3 (human) (UniProt O75914)
PDPK1 (human) = PDPK1 (human) (UniProt O15530)
PIK3C2B (human) = PIK3C2B (human) (UniProt O00750)
PIK3CA (human) = PIK3CA (human) (UniProt P42336)
PRKG2 (human) = PRKG2 (human) (UniProt Q13237)
PRPF4B (human) = PRPF4B (human) (UniProt Q13523)
ROCK2 (human) = ROCK2 (human) (UniProt O75116)
RPS6KA2 KD1 (human) = RPS6KA2 KD1 (human) (UniProt Q15349)
SRPK1 (human) = SRPK1 (human) (UniProt Q96SB4)
STK11 (human) = STK11 (human) (UniProt Q15831)
Sequence of STK11 (human) (Q15831 whole entry, looked up): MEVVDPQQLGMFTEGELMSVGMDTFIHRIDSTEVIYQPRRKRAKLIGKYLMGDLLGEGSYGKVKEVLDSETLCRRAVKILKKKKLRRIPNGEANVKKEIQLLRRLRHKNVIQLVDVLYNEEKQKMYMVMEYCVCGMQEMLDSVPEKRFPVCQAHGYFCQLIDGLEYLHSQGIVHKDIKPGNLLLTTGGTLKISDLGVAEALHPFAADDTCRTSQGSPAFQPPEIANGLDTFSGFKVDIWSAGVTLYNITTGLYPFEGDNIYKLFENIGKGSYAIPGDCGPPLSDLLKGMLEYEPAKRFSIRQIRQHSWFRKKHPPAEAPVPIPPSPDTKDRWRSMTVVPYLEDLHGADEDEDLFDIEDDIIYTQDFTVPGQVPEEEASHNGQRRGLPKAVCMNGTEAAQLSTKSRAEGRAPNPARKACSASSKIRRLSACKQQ

STK25 (human) = STK25 (human) (UniProt O00506)
STK38 (human) = STK38 (human) (UniProt Q15208)
Sequence of STK38 (human) (Q15208 whole entry, looked up): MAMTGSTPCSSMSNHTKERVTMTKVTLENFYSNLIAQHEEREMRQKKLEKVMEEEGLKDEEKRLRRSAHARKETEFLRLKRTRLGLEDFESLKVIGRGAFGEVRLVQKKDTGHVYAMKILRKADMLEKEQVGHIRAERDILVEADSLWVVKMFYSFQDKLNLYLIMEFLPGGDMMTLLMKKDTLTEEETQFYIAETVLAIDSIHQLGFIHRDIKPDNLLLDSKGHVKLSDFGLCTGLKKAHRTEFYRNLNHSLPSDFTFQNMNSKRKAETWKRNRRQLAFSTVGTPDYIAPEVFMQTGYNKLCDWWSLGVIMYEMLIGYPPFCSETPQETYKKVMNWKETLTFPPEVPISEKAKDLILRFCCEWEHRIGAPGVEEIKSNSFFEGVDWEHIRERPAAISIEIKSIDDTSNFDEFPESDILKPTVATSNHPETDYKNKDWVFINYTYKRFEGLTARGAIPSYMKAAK

STK38L (human) = STK38L (human) (UniProt Q9Y2H1)
TLK2 (human) = TLK2 (human) (UniProt Q86UE8)
ULK2 (human) = ULK2 (human) (UniProt Q8IYT8)

Sequence of CDK11B (human) (P21127 whole entry, looked up): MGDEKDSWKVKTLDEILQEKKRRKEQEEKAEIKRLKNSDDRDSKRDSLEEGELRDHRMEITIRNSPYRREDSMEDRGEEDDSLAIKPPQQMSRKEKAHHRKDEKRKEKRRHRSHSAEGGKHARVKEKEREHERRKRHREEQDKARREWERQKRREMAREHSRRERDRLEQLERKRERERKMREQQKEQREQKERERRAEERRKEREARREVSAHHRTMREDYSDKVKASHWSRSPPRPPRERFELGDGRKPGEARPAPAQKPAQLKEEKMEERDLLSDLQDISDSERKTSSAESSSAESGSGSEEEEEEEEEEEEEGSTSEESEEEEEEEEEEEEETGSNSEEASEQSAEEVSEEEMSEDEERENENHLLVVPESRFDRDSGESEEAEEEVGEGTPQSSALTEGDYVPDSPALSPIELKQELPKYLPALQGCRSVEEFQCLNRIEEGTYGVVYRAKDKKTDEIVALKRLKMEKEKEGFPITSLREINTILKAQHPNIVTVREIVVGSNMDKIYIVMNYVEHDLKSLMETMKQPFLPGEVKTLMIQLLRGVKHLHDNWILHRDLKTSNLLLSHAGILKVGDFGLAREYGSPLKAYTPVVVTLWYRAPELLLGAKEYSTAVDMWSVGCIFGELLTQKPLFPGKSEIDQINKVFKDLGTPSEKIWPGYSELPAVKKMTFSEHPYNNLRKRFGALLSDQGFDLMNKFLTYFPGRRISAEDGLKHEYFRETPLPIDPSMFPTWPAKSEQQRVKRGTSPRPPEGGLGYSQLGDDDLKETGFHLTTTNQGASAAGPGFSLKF
Sequence of CDKL3 (human) (Q8IVW4 whole entry, looked up): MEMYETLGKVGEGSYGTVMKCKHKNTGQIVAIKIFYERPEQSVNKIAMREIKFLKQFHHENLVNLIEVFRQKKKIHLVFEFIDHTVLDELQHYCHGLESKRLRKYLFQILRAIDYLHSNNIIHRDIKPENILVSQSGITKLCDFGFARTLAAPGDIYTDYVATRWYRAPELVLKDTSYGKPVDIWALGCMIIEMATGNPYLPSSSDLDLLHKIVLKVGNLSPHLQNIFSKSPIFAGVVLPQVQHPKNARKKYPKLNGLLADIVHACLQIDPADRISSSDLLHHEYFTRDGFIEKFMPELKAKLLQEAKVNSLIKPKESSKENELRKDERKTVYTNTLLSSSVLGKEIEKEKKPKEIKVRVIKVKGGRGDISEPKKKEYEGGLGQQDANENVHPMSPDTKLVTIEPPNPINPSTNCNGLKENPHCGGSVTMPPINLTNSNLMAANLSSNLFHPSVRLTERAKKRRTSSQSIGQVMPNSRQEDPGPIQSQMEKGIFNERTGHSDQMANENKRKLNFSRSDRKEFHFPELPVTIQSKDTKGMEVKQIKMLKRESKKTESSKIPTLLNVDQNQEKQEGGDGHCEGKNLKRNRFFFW
Sequence of CDK16 (human) (Q00536 whole entry, looked up): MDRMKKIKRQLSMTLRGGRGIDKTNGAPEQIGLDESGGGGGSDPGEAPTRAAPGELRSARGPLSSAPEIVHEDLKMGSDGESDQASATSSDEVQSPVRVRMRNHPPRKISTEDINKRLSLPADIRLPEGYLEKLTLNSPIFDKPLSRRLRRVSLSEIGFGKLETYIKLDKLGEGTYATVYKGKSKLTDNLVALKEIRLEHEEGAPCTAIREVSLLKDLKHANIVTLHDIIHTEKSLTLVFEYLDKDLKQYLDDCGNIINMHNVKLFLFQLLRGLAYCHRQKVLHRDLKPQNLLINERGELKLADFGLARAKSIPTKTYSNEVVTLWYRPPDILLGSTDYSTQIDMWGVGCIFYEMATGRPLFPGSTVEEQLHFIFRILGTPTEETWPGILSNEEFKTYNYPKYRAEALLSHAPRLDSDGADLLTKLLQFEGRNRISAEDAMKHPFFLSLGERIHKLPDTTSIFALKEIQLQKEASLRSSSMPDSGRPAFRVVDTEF
Sequence of CDK18 (human) (Q07002 whole entry, looked up): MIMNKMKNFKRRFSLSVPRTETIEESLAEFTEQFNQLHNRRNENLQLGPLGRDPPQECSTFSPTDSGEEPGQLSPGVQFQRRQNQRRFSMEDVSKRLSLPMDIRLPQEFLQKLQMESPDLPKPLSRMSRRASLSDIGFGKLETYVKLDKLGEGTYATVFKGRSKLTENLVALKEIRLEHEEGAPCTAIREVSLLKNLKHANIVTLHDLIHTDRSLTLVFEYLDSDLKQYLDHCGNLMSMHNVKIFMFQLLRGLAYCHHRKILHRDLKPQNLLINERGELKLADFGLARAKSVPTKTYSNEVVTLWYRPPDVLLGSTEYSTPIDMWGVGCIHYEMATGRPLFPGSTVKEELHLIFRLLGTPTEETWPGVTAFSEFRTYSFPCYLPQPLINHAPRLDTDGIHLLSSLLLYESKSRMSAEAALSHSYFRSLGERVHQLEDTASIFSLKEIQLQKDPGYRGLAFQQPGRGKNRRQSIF

In the case of `O=C1NC(=O)/C(=C/c2ccc3nccc(-c4ccncc4)c3c2)S1`, the kinase still bound, per cent of control (CDC42BPB (human)) is reported as 66%, the kinase still bound, per cent of control (CDK11B (human)) is reported as 95% and the kinase still bound, per cent of control (CDK14 (human)) is reported as 37%. For the same compound, the kinase still bound, per cent of control (CDK16 (human)) was 71%, the kinase still bound, per cent of control (CDK18 (human)) was 56% and the kinase still bound, per cent of control (CDK8 (human)) was 7.3%. For the same compound, the kinase still bound, per cent of control (CDKL2 (human)) was 64%, the kinase still bound, per cent of control (CDKL3 (human)) was 99% and the kinase still bound, per cent of control (CIT (human)) was 4.4%. The kinase still bound, per cent of control (CSNK1A1 (human)) was 24%, the kinase still bound, per cent of control (CSNK1D (human)) was 3.6% and the kinase still bound, per cent of control (CSNK1G1 (human)) was 20%. The kinase still bound, per cent of control (DCLK2 (human)) was 91%, the kinase still bound, per cent of control (EGFR (human)) was 58% and the kinase still bound, per cent of control (EIF2AK1 (human)) was 82%. For the same compound, the kinase still bound, per cent of control (GSK3A (human)) was 71%, the kinase still bound, per cent of control (IKBKB (human)) was 34% and the kinase still bound, per cent of control (KDR (human)) was 81%. The kinase still bound, per cent of control (LATS2 (human)) was 100%, the kinase still bound, per cent of control (LYN (human)) was 92% and the kinase still bound, per cent of control (MAPK13 (human)) was 100%. The kinase still bound, per cent of control (MINK1 (human)) was 49%, the kinase still bound, per cent of control (MKNK1 (human)) was 84% and the kinase still bound, per cent of control (MST1R (human)) was 100%. The kinase still bound, per cent of control (PAK2 (human)) was 21%, the kinase still bound, per cent of control (PAK3 (human)) was 20% and the kinase still bound, per cent of control (PDPK1 (human)) was 62%. For the same compound, the kinase still bound, per cent of control (PIK3C2B (human)) was 0.15%, the kinase still bound, per cent of control (PIK3CA (human)) was 0.05% and the kinase still bound, per cent of control (PRKG2 (human)) was 56%. For the same compound, the kinase still bound, per cent of control (PRPF4B (human)) was 88%, the kinase still bound, per cent of control (ROCK2 (human)) was 53% and the kinase still bound, per cent of control (RPS6KA2 KD1 (human)) was 100%. The kinase still bound, per cent of control (SRPK1 (human)) was 100%, the kinase still bound, per cent of control (STK11 (human)) was 12% and the kinase still bound, per cent of control (STK25 (human)) was 75%. It also gave a kinase still bound, per cent of control (STK38 (human)) of 61%, a kinase still bound, per cent of control (STK38L (human)) of 100% and a kinase still bound, per cent of control (TLK2 (human)) of 87%. For the same compound, the kinase still bound, per cent of control (ULK2 (human)) was 65%.

— the kinase profiling compilation of Christmann-Franck et al. (2016)
